{"source": "paper PMC8509428", "about": "“The Phenoxyalkyltriazine Antagonists for 5-HT6 Receptor with Promising Procognitive and Pharmacokinetic Properties In Vivo in Search for a Novel Therapeutic Approach to Dementia Diseases” (International Journal of Molecular Sciences, 2021)", "key": {"[1]": {"target": "T1, 5-HT1AR (Homo sapiens, UniProt P08908)", "T1 construct": "expressed in transfected cells; host or cells: HEK-293", "T1 sequence (P08908 1-422)": "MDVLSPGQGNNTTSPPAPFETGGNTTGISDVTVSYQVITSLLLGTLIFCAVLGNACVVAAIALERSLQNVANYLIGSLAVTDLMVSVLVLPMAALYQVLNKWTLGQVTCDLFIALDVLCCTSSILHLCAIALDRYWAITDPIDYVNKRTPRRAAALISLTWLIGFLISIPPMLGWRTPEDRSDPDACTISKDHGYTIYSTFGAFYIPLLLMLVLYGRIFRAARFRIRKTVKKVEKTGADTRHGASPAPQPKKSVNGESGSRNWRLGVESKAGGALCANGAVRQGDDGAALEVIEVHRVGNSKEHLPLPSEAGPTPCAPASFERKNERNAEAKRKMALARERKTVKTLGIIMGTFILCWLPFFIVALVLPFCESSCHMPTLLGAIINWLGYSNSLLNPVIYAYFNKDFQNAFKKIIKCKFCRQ", "assay": "Radioligand binding assay (RBA), 5-HT1AR", "settings": "± SD; displacement of [3H]-8-OHDPAT, HEK-293 cells; read-out: Ki 5-HT1A (converted)", "method": "The cells used in the radioligand binding assays receptor 5-HT1A were stably expressed in HEK-293 cells. Transfections were performed with the use of Lipofectamine 2000. The binding procedure was accomplished via the displacement of 2.5 nM [^3H]-8-OHDPAT (135.2 Ci/mmol) for 5-HT1AR. Each compound was tested in triplicate in seven to eight different concentrations (10^−11 to 10^−4 M). The inhibition constants (Ki) were calculated using the Cheng–Prusoff equation [45] and the results are expressed as the mean of at least two independent experiments."}, "[2]": {"target": "T2, 5-HT2A receptor (Homo sapiens, UniProt P28223)", "T2 construct": "expressed in transfected cells; host or cells: CHO-K1", "T2 sequence (P28223 whole entry)": "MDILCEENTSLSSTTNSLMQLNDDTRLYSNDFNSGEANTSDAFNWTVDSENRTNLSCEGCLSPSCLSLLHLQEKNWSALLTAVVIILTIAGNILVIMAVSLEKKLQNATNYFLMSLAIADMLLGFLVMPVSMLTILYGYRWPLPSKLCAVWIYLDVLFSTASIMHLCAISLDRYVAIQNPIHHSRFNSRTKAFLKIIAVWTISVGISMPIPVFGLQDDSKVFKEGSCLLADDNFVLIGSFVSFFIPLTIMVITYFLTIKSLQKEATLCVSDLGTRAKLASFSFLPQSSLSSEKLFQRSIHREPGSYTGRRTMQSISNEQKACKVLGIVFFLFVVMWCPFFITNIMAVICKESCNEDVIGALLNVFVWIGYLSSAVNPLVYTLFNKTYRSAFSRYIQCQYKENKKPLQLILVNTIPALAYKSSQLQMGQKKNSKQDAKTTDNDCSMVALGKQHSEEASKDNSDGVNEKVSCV", "assay": "Functional assay for 5-HT2A receptor (aequorin, CHO-K1 cells)", "type": "cell-based", "experimental": "Test compounds were dissolved in dimethyl sulfoxide (DMSO) at a concentration of 10 mM. Serial dilutions were prepared in a 96-well microplate in assay buffer and eight concentrations were tested. A cellular aequorin-based functional assay was performed with recombinant CHO-K1 cells expressing mitochondrially targeted aequorin, human GPCR and the promiscuous G protein α16 for 5-HT2A. […] After thawing, cells were transferred to assay buffer (DMEM/HAM’s F12 with 0.1% protease-free BSA) and centrifuged. The cell pellet was resuspended in assay buffer and coelenterazine h was added at final concentrations of 5 μM. […] After 1 h of incubation, 50 μL of the cells suspension was dispensed using automatic injectors built into the plate reader POLARstar Omega, (BMG Labtech, Ortenberg, Germany) onto a white opaque 96-well microplates preloaded with test compounds. Immediate light emission generated following calcium mobilization was recorded for 30 s. In antagonist mode, after 30 min of incubation, the reference agonist was added to the above assay mix and light emission was recorded again. The final concentration of the reference agonist was equal to EC80."}, "[3]": {"assay": "Bi-directional Caco-2 permeability assay", "type": "in vitro ADME", "settings": "human, pH 7.4, Caco-2, 10 µM, triplicate"}, "[4]": {"target": "T3, CYP3A4 (Homo sapiens, UniProt P08684)", "T3 construct": "purchased Promega", "T3 sequence (P08684 whole entry)": "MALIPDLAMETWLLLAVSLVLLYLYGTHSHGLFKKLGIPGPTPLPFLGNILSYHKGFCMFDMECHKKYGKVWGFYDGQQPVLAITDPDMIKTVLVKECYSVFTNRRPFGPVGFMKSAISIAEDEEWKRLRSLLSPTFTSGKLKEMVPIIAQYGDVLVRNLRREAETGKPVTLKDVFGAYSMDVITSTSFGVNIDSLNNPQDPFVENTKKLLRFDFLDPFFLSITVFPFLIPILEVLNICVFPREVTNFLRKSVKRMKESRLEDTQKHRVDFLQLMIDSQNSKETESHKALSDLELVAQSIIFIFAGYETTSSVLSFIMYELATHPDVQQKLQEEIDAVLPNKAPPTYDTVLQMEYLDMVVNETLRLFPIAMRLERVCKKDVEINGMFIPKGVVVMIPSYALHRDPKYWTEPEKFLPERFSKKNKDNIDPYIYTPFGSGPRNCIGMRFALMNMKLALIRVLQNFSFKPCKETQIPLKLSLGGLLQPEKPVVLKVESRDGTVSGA", "assay": "CYP3A4 P450-Glo assay", "type": "in vitro ADME", "settings": "10 μM of compound", "method": "The luminescent CYP3A4 P450-Glo™ Promega® (Madison, WI, USA) was used for the investigation of potential drug-drug interactions. All assays and protocols were described before. The compounds were tested in triplicate at the final concentrations in the range from 0.01 to 25 μM. The luminescent signal was measured by using a microplate reader EnSpire PerkinElmer (Waltham, MA, USA)."}, "[5]": {"tested_on": "Salmonella Typhimurium TA100", "type": "cell-based", "text": "The used Salmonella Typhimurium TA100 strain has base pair substitution (hisG46 mutation, which target is GGG). […] The occurrence of revertants was visualized by pH indicator dye which was present in the bacterial medium."}, "[6]": {"tested_on": "rats", "assay": "Forced swim test (FST)", "type": "in vivo, rat", "settings": "for Immobility Time: 60 min before test, mean ± SEM", "method": "The experiment was carried out according to the method of [54]. On the first day of the experiment, the animals were gently individually placed in Plexiglas cylinders (40 cm high, 18 cm in diameter) containing 15 cm of water maintained at 23–25 °C for 15 min. On removal from water, the rats were placed for 30 min in a Plexiglas box under 60-W bulb to dry. On the following day (24 h later), the rats were replaced in the cylinder and the total duration of immobility was recorded during the whole 5-min test period. The immobility was assigned when no additional activity was observed other than that necessary to keep the rat’s head above the water. Fresh water was used for each animal."}, "[7]": {"tested_on": "rats", "assay": "Elevated plus-maze (EPM) test", "type": "in vivo, rat", "settings": "for Open Arms % of entries / Open Arms % of time / Open Arms Distance / Open Arms Entries / Open Arms Time: mean ± SEM", "description": "The testing procedure was based on a method described by. Plus-maze apparatus (an automated device produced by Campden Instruments Ltd. (Leicestershire, UK) made of durable, high density, non-porous black plastic, elevated to a height of 50 cm, consisted of two open arms (50 × 10 cm) and two closed arms (50 × 10 cm, and 30 cm high walls), arranged so that the two arms of each type were opposite each other. The floor of the plus-maze was made of infrared transparent material what means that there are no visible sensors. Plus-maze apparatus was connected to PC software by control chassis. The experiments were conducted in a darkened room, only the center of the maze was illuminated with low-intensity light (30 lux measured on the maze level). Each rat was gently placed in the center of the plus-maze, facing one of the closed arms, immediately after a 5-min adaptation period in a plastic black box (60 × 60 × 35 cm), to increase the overall activity in the EPM. During a 5-min test period, automated Motor Monitor System recorded the number of entries into the closed and open arms and the time spent in either type of arms. The device counted an effective arm-entry when the four paws of a rat were into any arm. The maze was thoroughly cleaned after each trial. The EPM test is an “unconditional” anxiety-like test based on rodents’ natural aversion to heights and open space."}, "[8]": {"tested_on": "rats", "assay": "Exploratory activity measured in the EPM test", "type": "in vivo, rat", "settings": "for Total Distance / X Ambulation / Y Ambulation: mean ± SEM", "method": "The experiment was performed using an EPM apparatus (details see above). Total ambulation (the total distance covered by a rat, and ambulation along X and Y axis) was taken to discern drug effects on general activity from those on open-arm exploration, during a 5-min test period (i.e., the time equal to the observation period in the EPM test). Rats’ behavior was not videotaped during the test."}, "[9]": {"target": "human 5-HT6R", "settings": "± SD; read-out: Ki 5-HT6 (converted); cited from earlier work"}, "[10]": {"target": "dopaminergic receptor D2", "settings": "± SD; cited from earlier work"}, "[11]": {"target": "5-HT7R", "settings": "± SD; read-out: Ki 5-HT7 (converted); cited from earlier work"}, "[12]": {"settings": "cited from earlier work"}, "[13]": {"tested_on": "hepatoma HepG2 cell line", "settings": "50 µM; cited from earlier work"}, "[14]": {"tested_on": "MK-801-induced memory deficits in rats", "settings": "i.p.; cited from earlier work"}, "[15]": {"target": "human serotonin 5-HT6 receptor (Homo sapiens, UniProt P50406)", "sequence (P50406 whole entry)": "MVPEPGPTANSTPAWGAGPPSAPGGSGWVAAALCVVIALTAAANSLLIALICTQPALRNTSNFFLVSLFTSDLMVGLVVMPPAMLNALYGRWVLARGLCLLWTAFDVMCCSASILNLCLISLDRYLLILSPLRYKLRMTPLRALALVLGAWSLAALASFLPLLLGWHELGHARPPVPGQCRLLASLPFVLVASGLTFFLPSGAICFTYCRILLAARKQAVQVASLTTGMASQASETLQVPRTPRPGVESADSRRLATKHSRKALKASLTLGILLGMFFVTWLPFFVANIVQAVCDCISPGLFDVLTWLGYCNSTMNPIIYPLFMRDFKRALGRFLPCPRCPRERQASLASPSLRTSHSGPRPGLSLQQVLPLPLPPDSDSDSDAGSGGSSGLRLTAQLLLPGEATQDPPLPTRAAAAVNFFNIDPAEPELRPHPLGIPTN", "parameters": "host or cells: 1321N1", "settings": "cited from earlier work"}}, "note": "Like-named read-outs stand apart in the source and are kept apart here."}
{"compound": "CCC(Oc1cc(Cl)ccc1Cl)c1nc(N)nc(N2CCN(C)CC2)n1", "note": "(racemic) [Compound 1, (RS)-4-[1-(2,5-dichlorophenoxy)propyl]-6-(4-methylpiperazin-1-yl)-1,3,5-triazin-2-amine]", "values": [{"measurement": "Ki", "setting": "[1]", "value": "4.76 ± 1.19", "unit": "µM"}, {"measurement": "Emax", "setting": "[2]; Table S2, read-out: 5-HT2A Antagonist mode Emax", "value": 0, "unit": "%"}, {"measurement": "Emax", "setting": "[2]; read-out: 5-HT2AR Agonist Mode Emax", "value": "58 ± 9.7", "unit": "%"}, {"measurement": "Papp A→B at 2 h, 10 µM", "setting": "[3]", "value": "14.2 ± 0.36", "unit": "×10⁻⁶ cm/s"}, {"measurement": "Papp B→A at 2 h, 10 µM", "setting": "[3]", "value": "22.2 ± 1.92", "unit": "×10⁻⁶ cm/s"}, {"measurement": "CYP3A4 activity remaining", "setting": "[4]", "value": 44, "unit": "%"}, {"measurement": "Binomial B-Value", "setting": "[5]; 1 µM", "value": 0.0707}, {"measurement": "Number of Revertants ± SD", "setting": "[5]; 1 µM", "value": "2.00 ± 1.00"}, {"measurement": "Binomial B-Value", "setting": "[5]; 10 µM", "value": 0.0707}, {"measurement": "Number of Revertants ± SD", "setting": "[5]; 10 µM", "value": "2.00 ± 1.00"}, {"measurement": "Immobility Time", "setting": "[6]; 1 mg/kg i.p.", "value": "241.80 ± 18.7", "unit": "s"}, {"measurement": "decrease of immobility time vs vehicle-treated group", "setting": "[6]; 3 mg/kg", "value": "about 30%"}, {"measurement": "Immobility Time", "setting": "[6]; 3 mg/kg i.p.", "value": "175.29 ± 18.1", "unit": "s"}, {"measurement": "decrease of immobility time vs vehicle-treated group", "setting": "[6]; 10 mg/kg", "value": "about 36%"}, {"measurement": "Immobility Time", "setting": "[6]; 10 mg/kg i.p.", "value": "163.63 ± 11.2", "unit": "s"}, {"measurement": "Open Arms % of entries", "setting": "[7]; 1 mg/kg i.p.", "value": "32.59 ± 4.23", "unit": "%"}, {"measurement": "Open Arms % of time", "setting": "[7]; 1 mg/kg i.p.", "value": "25.76 ± 6.11", "unit": "%"}, {"measurement": "Open Arms Distance", "setting": "[7]; 1 mg/kg i.p.", "value": "788 ± 175", "unit": "cm"}, {"measurement": "Open Arms Entries", "setting": "[7]; 1 mg/kg i.p.", "value": "9.88 ± 1.99"}, {"measurement": "Open Arms Time", "setting": "[7]; 1 mg/kg i.p.", "value": "58.90 ± 14.20", "unit": "s"}, {"measurement": "Open Arms % of entries", "setting": "[7]; 3 mg/kg i.p.", "value": "29.49 ± 3.48", "unit": "%"}, {"measurement": "Open Arms % of time", "setting": "[7]; 3 mg/kg i.p.", "value": "10.27 ± 2.05", "unit": "%"}, {"measurement": "Open Arms Distance", "setting": "[7]; 3 mg/kg i.p.", "value": "307 ± 78", "unit": "cm"}, {"measurement": "Open Arms Entries", "setting": "[7]; 3 mg/kg i.p.", "value": "6.14 ± 0.77"}, {"measurement": "Open Arms Time", "setting": "[7]; 3 mg/kg i.p.", "value": "24.81 ± 5.24", "unit": "s"}, {"measurement": "Open Arms % of entries", "setting": "[7]; 10 mg/kg i.p.", "value": "42.23 ± 9.09", "unit": "%"}, {"measurement": "Open Arms % of time", "setting": "[7]; 10 mg/kg i.p.", "value": "18.34 ± 4.19", "unit": "%"}, {"measurement": "Open Arms Distance", "setting": "[7]; 10 mg/kg i.p.", "value": "538 ± 104", "unit": "cm"}, {"measurement": "Open Arms Entries", "setting": "[7]; 10 mg/kg i.p.", "value": "7.20 ± 1.66"}, {"measurement": "Open Arms Time", "setting": "[7]; 10 mg/kg i.p.", "value": "43.36 ± 9.08", "unit": "s"}, {"measurement": "anxiolytic-like activity in EPM test", "setting": "[7]; i.p., 60 min before test", "value": "did not show anxiolytic-like activity"}, {"measurement": "Total Distance", "setting": "[8]; 1 mg/kg i.p.", "value": "4520 ± 168", "unit": "cm"}, {"measurement": "X Ambulation", "setting": "[8]; 1 mg/kg i.p.", "value": "172 ± 6"}, {"measurement": "Y Ambulation", "setting": "[8]; 1 mg/kg i.p.", "value": "99 ± 6"}, {"measurement": "Total Distance", "setting": "[8]; 3 mg/kg i.p.", "value": "3995 ± 218", "unit": "cm"}, {"measurement": "X Ambulation", "setting": "[8]; 3 mg/kg i.p.", "value": "146 ± 10"}, {"measurement": "Y Ambulation", "setting": "[8]; 3 mg/kg i.p.", "value": "82 ± 7"}, {"measurement": "decrease of total distance", "setting": "[8]; 10 mg/kg i.p.", "value": 20, "unit": "%"}, {"measurement": "Total Distance", "setting": "[8]; 10 mg/kg i.p.", "value": "3681 ± 256; p < 0.05 F(3,24) = 4.5291; p < 0.05 cm"}, {"measurement": "X Ambulation", "setting": "[8]; 10 mg/kg i.p.", "value": "140 ± 11 F(3,24) = 3.8035; p < 0.05"}, {"measurement": "Y Ambulation", "setting": "[8]; 10 mg/kg i.p.", "value": "83 ± 8 F(3,24) = 1.9215; NS"}, {"measurement": "Ki", "setting": "[9]", "value": "6 ± 1", "unit": "nM"}, {"measurement": "Ki", "setting": "[10]", "value": "320 ± 19", "unit": "nM"}, {"measurement": "Ki", "setting": "[11]", "value": "5.71 ± 0.967", "unit": "µM"}, {"measurement": "number of metabolites formed", "setting": "[12]; RLMs, 120 min", "value": "six"}, {"measurement": "parent biotransformed", "setting": "[12]; RLMs, 120 min", "value": "more than 90%"}, {"measurement": "parent remaining (metabolic stability)", "setting": "[12]; compound 1, RLMs", "value": "< 10", "unit": "%"}, {"measurement": "hepatotoxic effect, HepG2", "setting": "[13]", "value": "weak hepatotoxic effect"}, {"measurement": "effective dose in NOR test", "setting": "[14]", "value": 3, "unit": "mg/kg"}, {"measurement": "5-HT6 Antagonist Mode Emax", "setting": "[15]; Table S1, compound 1", "value": 98, "unit": "%"}, {"measurement": "5-HT6R Agonist Mode Emax", "setting": "[15]; compound 1, previous functional assays", "value": "4.00 ± 0.00", "unit": "%"}]}
